The source of these data is patent publication US12239643B2, “Therapeutic agent for inflammatory diseases, autoimmune diseases, fibrotic diseases, and cancer diseases” (MEIJI SEIKA PHARMA CO., LTD., priority 2018, dated 2025).

Like-named read-outs stand apart in the source and are kept apart here.

The test has as its system PDE4. The test can be described thus: Evaluation of PDE4 inhibitory activity, scintillation proximity assay. The test is classed as biochemical. The following applies: scintillation proximity assay. The protocol: The BDE4 inhibitory activity was measured using scintillation proximity assay (SPA) as follows. First, a test compound dissolved in dimethyl sulfoxide was diluted 1:10 in reaction buffer solution which contained 50 mM of Tris-HCl with pH 7.4, 8.3 mM of MgCl2, 1.7 mM of EGTA, and 3 mg/mL of bovine serum albumin (BSA). Then, 10 μL of the diluted solution was added in a 96-well assay plate. Moreover, 50 μL of PDE4 (enzyme preparation) diluted 1:375 in the reaction buffer solution was added, and then 40 μL of [2,8-^3H]-adenosine-3′,5′-cyclic phosphate triethylammonium salt diluted 1:1000 in the reaction buffer solution was added. The mixture was allowed to stand at room temperature for 120 minutes. Thereafter, […] of RNA binding YSi-SPA beads suspension containing ZnSO4 was added and the mixture was allowed to stand at room temperature for 15 minutes, followed by adsorption of the enzyme reaction product to the beads. After that, the radioactivity was measured using a liquid scintillation counter for a 96-well plate. The mixture without the enzyme preparation added but only the reaction buffer solution added is a blank, and the mixture with the enzyme preparation added and only dimethyl sulfoxide added instead of the test compound is a control.
In addition, the PDE4 inhibitory activity (concentration that inhibits PDE4 activity by 50%=concentration for the inhibition rate of 50% (IC50)) of the test compound was calculated from the inhibition curves based on the inhibition rates for various concentrations of the test compound.

Setting [1] is: read-out: PDE4 Inhibitory Activity (Evaluation 1; concentration for the inhibition rate of 50%).
The mark [2] stands for this setting: class symbols of Evaluation 1, read-out: PDE4 Inhibitory Activity (concentration for the inhibition rate of 50%, IC50), Evaluation 1.

As to `CON=C(C)c1cc(-c2nccs2)c2oc(N3CC4CCC(C3)N4)nc2c1OC(F)(F)F` (mixture of isomers) [Example 218, (E)-1-(2-(3,8-diazabicyclo[3.2.1]octan-3-yl)-7-(thiazol-2-yl)-4-(trifluoromethoxy)benzo[d]oxazol-5-yl)ethan-1-one O-methyloxime and (Z)-1-(2-(3,8-diazabicyclo[3.2.1]octan-3-yl)-7-(thiazol-2-yl)-4-(trifluoromethoxy)benzo[d]oxazol-5-yl)ethan-1-one O-methyloxime], the IC50 under setting [1] was less than 100 nM. As to `OC(c1cc(-c2nccs2)c2oc(N3CC4CCC(C3)N4)nc2c1)C(F)(F)F` (racemic) [Example 137, 1-(2-(3,8-Diazabicyclo[3.2.1]octan-3-yl)-7-(thiazol-2-yl)benzo[d]oxazol-5-yl)-2,2,2-trifluoroethan-1-ol], the IC50 under setting [2] was less than 100 nM. In the case of `CC(O)C(F)(F)Oc1ccc(-c2nccs2)c2oc(N3CC4CC(C3)N4)nc12` (racemic) [Example 250, 1-((2-(3,6-Diazabicyclo[3.1.1]heptan-3-yl)-7-(thiazol-2-yl)benzo[d]oxazol-4-yl)oxy)-1,1-difluoropropan-2-ol], under setting [1], the IC50 is less than 100 nM. For `FC(F)(F)Oc1c(Cl)cc(-c2nccs2)c2oc(N3CC4CCC(C3)N4)nc12` [Example 1, 2-(3,8-Diazabicyclo[3.2.1]octan-3-yl)-5-chloro-7-(thiazol-2-yl)-4-(trifluoromethoxy)benzo[d]oxazole], the IC50 under setting [2] is less than 100 nM. With `FC(F)(F)Oc1c(Cl)cc(-c2nccs2)c2oc(N3CC4CCCC(C3)N4)nc12` [Example 2, 2-(3,9-Diazabicyclo[3.3.1]nonan-3-yl)-5-chloro-7-(thiazol-2-yl)-4-(trifluoromethoxy)benzo[d]oxazole], the IC50 under setting [2] is less than 100 nM. On the same count and under the same terms, in the case of `FC(F)(F)Oc1c(Cl)cc(-c2ccco2)c2oc(N3CC4CCC(C3)N4)nc12` [Example 6, 2-(3,8-Diazabicyclo[3.2.1]octan-3-yl)-5-chloro-7-(furan-2-yl)-4-(trifluoromethoxy)benzo[d]oxazole] it was less than 100 nM. On the same count and under the same terms, under `FC(F)(F)Oc1c(Cl)cc(-c2ccccn2)c2oc(N3CC4CCC(C3)N4)nc12` [Example 7, 2-(3,8-Diazabicyclo[3.2.1]octan-3-yl)-5-chloro-7-(pyridin-2-yl)-4-(trifluoromethoxy)benzo[d]oxazole] stands less than 100 nM.

In the case of `FC(F)(F)Oc1c(Cl)cc(-c2ncco2)c2oc(N3CC4CCC(C3)N4)nc12` [Example 9, 2-(3,8-Diazabicyclo[3.2.1]octan-3-yl)-5-chloro-7-(oxazol-2-yl)-4-(trifluoromethoxy)benzo[d]oxazole], the IC50 under setting [2] was less than 100 nM. Still for that read-out and setting: under `FC(F)(F)c1c(Cl)cc(-c2ccccn2)c2oc(N3CC4CCC(C3)N4)nc12` [Example 11, 2-(3,8-Diazabicyclo[3.2.1]octan-3-yl)-5-chloro-7-(pyridin-2-yl)-4-(trifluoromethyl)benzo[d]oxazole] stands less than 100 nM. On the same count and under the same terms, under `FC(F)(F)c1c(Cl)cc(-c2ccccn2)c2oc(N3CC4CC(C3)N4)nc12` [Example 13, 2-(3,6-Diazabicyclo[3.1.1]heptan-3-yl)-5-chloro-7-(pyridin-2-yl)-4-(trifluoromethyl)benzo[d]oxazole] stands less than 100 nM; under `FC(F)(F)c1c(Cl)cc(-c2ccccn2)c2oc(N3CC4COCC(C3)N4)nc12` [Example 14, 7-(5-Chloro-7-(pyridin-2-yl)-4-(trifluoromethyl)benzo[d]oxazol-2-yl)-3-oxa-7,9-diazabicyclo[3.3.1]nonane], 100 to 1000 nM.

With `FC(F)(F)c1c(Cl)cc(-n2cccn2)c2oc(N3CC4CCC(C3)N4)nc12` [Example 15, 2-(3,8-Diazabicyclo[3.2.1]octan-3-yl)-5-chloro-7-(1H-pyrazol-1-yl)-4-(trifluoromethyl)benzo[d]oxazole], under setting [2], the IC50 is less than 100 nM. Consider `FC(F)(F)c1c(Cl)cc(-n2cccn2)c2oc(N3CC4CCCC(C3)N4)nc12` [Example 16, 2-(3,9-Diazabicyclo[3.3.1]nonan-3-yl)-5-chloro-7-(1H-pyrazol-1-yl)-4-(trifluoromethyl)benzo[d]oxazole], for which the IC50 under setting [2] is less than 100 nM. The same measure, in the same setting: in the case of `FC(F)(F)c1c(Cl)cc(-n2cccn2)c2oc(N3CC4COCC(C3)N4)nc12` [Example 18, 7-(5-Chloro-7-(1H-pyrazol-1-yl)-4-(trifluoromethyl)benzo[d]oxazol-2-yl)-3-oxa-7,9-diazabicyclo[3.3.1]nonane] it was 100 to 1000 nM; in that of `FC(F)(F)c1c(Cl)cc(-c2nccs2)c2oc(N3CC4COCC(C3)N4)nc12` [Example 19, 7-(5-Chloro-7-(thiazol-2-yl)-4-(trifluoromethyl)benzo[d]oxazol-2-yl)-3-oxa-7,9-diazabicyclo[3.3.1]nonane], less than 100 nM; in that of `FC(F)(F)c1c(Cl)cc(-c2nccs2)c2oc(N3CC4CCC(C3)N4)nc12` [Example 20, 2-(3,8-Diazabicyclo[3.2.1]octan-3-yl)-5-chloro-7-(thiazol-2-yl)-4-(trifluoromethyl)benzo[d]oxazole], less than 100 nM. With `CC(C)c1cc(-c2nccs2)c2oc(N3CC4CCC(C3)N4)nc2c1` [Example 21, 2-(3,8-Diazabicyclo[3.2.1]octan-3-yl)-5-isopropyl-7-(thiazol-2-yl)benzo[d]oxazole], the IC50 under setting [2] is less than 100 nM. For the compound `CC(C)c1cc(-c2nccs2)c2oc(N3CC4CC(C3)N4)nc2c1` [Example 22, 2-(3,6-Diazabicyclo[3.1.1]heptan-3-yl)-5-isopropyl-7-(thiazol-2-yl)benzo[d]oxazole], the IC50 under setting [2] was less than 100 nM. On the same count and under the same terms, in the case of `CC(C)c1cc(-c2nccs2)c2oc(N3CC4COCC(C3)N4)nc2c1` [Example 23, 7-(5-Isopropyl-7-(thiazol-2-yl)benzo[d]oxazol-2-yl)-3-oxa-7,9-diazabicyclo[3.3.1]nonane] it was 100 to 1000 nM; in that of `CC(C)c1cc(-c2nccs2)c2oc(N3CC4CCCC(C3)N4)nc2c1` [Example 24, 2-(3,9-Diazabicyclo[3.3.1]nonan-3-yl)-5-isopropyl-7-(thiazol-2-yl)benzo[d]oxazole], less than 100 nM; in that of `Cc1ccc(-c2nccs2)c2oc(N3CC4CC(C3)N4)nc12` [Example 26, 2-(3,6-Diazabicyclo[3.1.1]heptan-3-yl)-4-methyl-7-(thiazol-2-yl)benzo[d]oxazole], less than 100 nM. `Cc1ccc(-c2nccs2)c2oc(N3CC4CCCC(C3)N4)nc12` [Example 27, 2-(3,9-Diazabicyclo[3.3.1]nonan-3-yl)-4-methyl-7-(thiazol-2-yl)benzo[d]oxazole]: under setting [2], the IC50 is less than 100 nM. As to `FC(F)(F)Oc1ccc(-c2nccs2)c2oc(N3CC4CCC(C3)N4)nc12` [Example 28, 2-(3,8-Diazabicyclo[3.2.1]octan-3-yl)-7-(thiazol-2-yl)-4-(trifluoromethoxy)benzo[d]oxazole], under setting [2], the IC50 was less than 100 nM. Turning to `FC(F)(F)c1ccc(-c2nccs2)c2oc(N3CC4CCC(C3)N4)nc12` [Example 31, 2-(3,8-Diazabicyclo[3.2.1]octan-3-yl)-7-(thiazol-2-yl)-4-(trifluoromethyl)benzo[d]oxazole], the IC50 under setting [2] was less than 100 nM. Still for that read-out and setting: in the case of `FC(F)(F)c1ccc(-c2nccs2)c2oc(N3CC4CCCC(C3)N4)nc12` [Example 33, 2-(3,9-Diazabicyclo[3.3.1]nonan-3-yl)-7-(thiazol-2-yl)-4-(trifluoromethyl)benzo[d]oxazole] it was less than 100 nM; in that of `CC(=O)Nc1ccc(-c2nccs2)c2oc(N3CC4CCCC(C3)N4)nc12` [Example 34, N-(2-(3,9-Diazabicyclo[3.3.1]nonan-3-yl)-7-(thiazol-2-yl)benzo[d]oxazol-4-yl)acetamide], less than 100 nM.

With `CC(=O)Nc1ccc(-c2nccs2)c2oc(N3CC4CC(C3)N4)nc12` [Example 35, N-(2-(3,6-diazabicyclo[3.1.1]heptan-3-yl)-7-(thiazol-2-yl)benzo[d]oxazol-4-yl)acetamide], under setting [2], the IC50 lay in the range of 100 to 1000 nM. Same read-out and setting: under `Clc1ccc(-c2nccs2)c2oc(N3CC4CCC(C3)N4)nc12` [Example 36, 2-(3,8-Diazabicyclo[3.2.1]octan-3-yl)-4-chloro-7-(thiazol-2-yl)benzo[d]oxazole] stands less than 100 nM; under `Clc1ccc(-c2nccs2)c2oc(N3CC4CC(C3)N4)nc12` [Example 37, 2-(3,6-Diazabicyclo[3.1.1]heptan-3-yl)-4-chloro-7-(thiazol-2-yl)benzo[d]oxazole], less than 100 nM. The same measure, in the same setting: in the case of `Clc1ccc(-c2nccs2)c2oc(N3CC4CCCC(C3)N4)nc12` [Example 38, 2-(3,9-Diazabicyclo[3.3.1]nonan-3-yl)-4-chloro-7-(thiazol-2-yl)benzo[d]oxazole] it was less than 100 nM; in that of `CSc1cc(-c2nccs2)c2oc(N3CC4CCC(C3)N4)nc2c1` [Example 39, 2-(3,8-Diazabicyclo[3.2.1]octan-3-yl)-5-(methylthio)-7-(thiazol-2-yl)benzo[d]oxazole], less than 100 nM; in that of `CSc1cc(-c2nccs2)c2oc(N3CC4CC(C3)N4)nc2c1` [Example 40, 2-(3,6-Diazabicyclo[3.1.1]heptan-3-yl)-5-(methylthio)-7-(thiazol-2-yl)benzo[d]oxazole], less than 100 nM. For the compound `CSc1cc(-c2nccs2)c2oc(N3CC4CCCC(C3)N4)nc2c1` [Example 41, 2-(3,9-Diazabicyclo[3.3.1]nonan-3-yl)-5-(methylthio)-7-(thiazol-2-yl)benzo[d]oxazole], the IC50 under setting [2] is less than 100 nM.
